Source: patent US20250302983A1, “Saponin Conjugates” (priority 2018, published 2025)

Columns and labels:
[1] = test system: HeLa cells; assay: HeLa cell viability assay (MTS): SO1861 + dianthin-EGF with PAMAM, PAMAM-conjugates, G4-dendron or chloroquine; assay type: cell-based, human; conditions: positive control
From the text: Whether or not a first proteinaceous molecule comprising saponins, either or not further comprising one or more (cleavable) linkers and/or optionally a scaffold, is able to disturb the acidic environment and […] the endosomal escape function of the at least one glycoside (saponin) can be easily determined with an assay as described in Example 3 and as known in the art. The inhibition is described as “fold amount increases of glycoside necessary to induced 50% cell killing”. […] The fold increase is to be measured in assay, essentially as described in Example 4, wherein Chloroquine, as a positive control, induces a 2-fold increase in glycoside amount, preferably saponin amount wherein the saponin is any one or more of the saponins of the invention (see Table A1, Scheme I, previous embodiments) to observe 50% cell killing.
HeLa cells were seeded in DMEM (PAN-Biotech GmbH) supplemented with 10% fetal bovine serum (PAN-Biotech GmbH) and 1% penicillin/streptomycin (PAN-Biotech GmbH), in a 96 well plate at 5,000 c/w in 100 μL/well and incubated overnight at 37° C. and 5% CO2. The next day 20× concentrated stocks of the PAMAM, PAMAM-conjugates, G4-dendron (prepared in Example 3) or chloroquine (Sigma Aldrich) samples were prepared in DMEM. […]

[2] = test system: SK-BR-3, JIMT-1, MDA-MB-468, A431, CaSki, HeLa, A2058; assay: control treatments, relative cell viability on various cancer cell lines (FIG. 12); assay type: cell-based, human; conditions: wide range of concentrations toxin tested, up to 100.000 pM

| Molecule | fold increase in glycoside (saponin) amount to observe 50% cell killing [1] [fold] | influence on cell viability [2] |
| --- | --- | --- |
| CCN(CC)CCCC(C)Nc1ccnc2cc(Cl)ccc12 (centres unmarked) [Chloroquine] | 2 | – |
| saporin | – | do not or hardly have any influence on cell viability |
